From patent publication US8802597B2, “Herbicidal pyrimidines” (E I du Pont de Nemours and Company, priority 2003, dated 2014)

Legend:
Assay in all cases: Test E flooded paddy water application
Type in all cases: in vivo
Conditions in all cases: Flood, 21 days, scale 0 to 100 (0 no effect, 100 complete control)
[1] = tested on: bearded (brdd.) sprangletop (Leptochloa fusca ssp. fascicularis)
Outline: (§1)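 Weeds sown in sterilized Tama silt loam (2.6% organic matter), greenhouse 29.5/26.7° C, 16-h photoperiod; at 2.0–2.5-leaf stage pots flooded to 3 cm and compound added to paddy water. Visual rating vs untreated controls after 21 days, 0 (no effect) to 100 (complete control).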

[2] = tested on: ducksalad (Heteranthera limosa)
Outline: as §1

[3] = tested on: junglerice (Echinochloa colona)
Outline: as §1

[4] = tested on: purple redstem (Ammannia coccinea)
Outline: as §1

[5] = tested on: smallflower umbrella sedge (Cyperus difformis)
Outline: as §1

[6] = tested on: transplanted rice seedlings (Oryza sativa cv. ‘Japonica-M202’)
Outline: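 Response scored visually on a 0–100 scale (100 = complete control) at 21 days against untreated pots. Treatment was into paddy water 3 cm deep over silt loam, with plants at the 2.0–2.5-leaf stage, grown under 16-h light at 29.5/26.7 °C day/night.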

Compound: COC(=O)c1nc(-c2ccc(Cl)cc2)nc(N)c1Cl [Compound 58, methyl 6-amino-5-chloro-2-(4-chlorophenyl)-4-pyrimidinecarboxylate]
- Sprangletop, Brdd. plant response rating ([1]; 32 g ai/ha): 40
- Sprangletop, Brdd. plant response rating ([1]; 64 g ai/ha): 60
- Sprangletop, Brdd. plant response rating ([1]; 125 g ai/ha): 60
- Sprangletop, Brdd. plant response rating ([1]; 250 g ai/ha): 60
- Plant response rating, Sprangletop, Brdd. ([1]; 16 g ai/ha): 20
- Ducksalad plant response rating ([2]; 32 g ai/ha): 100
- Ducksalad plant response rating ([2]; 64 g ai/ha): 100
- Ducksalad plant response rating ([2]; 125 g ai/ha): 100
- Ducksalad plant response rating ([2]; 250 g ai/ha): 100
- Plant response rating, Ducksalad ([2]; 16 g ai/ha): 100
- Junglerice plant response rating ([3]; 32 g ai/ha): 0
- Junglerice plant response rating ([3]; 64 g ai/ha): 0
- Junglerice plant response rating ([3]; 125 g ai/ha): 0
- Junglerice plant response rating ([3]; 250 g ai/ha): 0
- Plant response rating, Junglerice ([3]; 16 g ai/ha): 0
- Redstem plant response rating ([4]; 32 g ai/ha): 80
- Redstem plant response rating ([4]; 64 g ai/ha): 85
- Redstem plant response rating ([4]; 125 g ai/ha): 95
- Redstem plant response rating ([4]; 250 g ai/ha): 95
- Plant response rating, Redstem ([4]; 16 g ai/ha): 60
- Sedge, Umbrella plant response rating ([5]; 32 g ai/ha): 95
- Sedge, Umbrella plant response rating ([5]; 64 g ai/ha): 95
- Sedge, Umbrella plant response rating ([5]; 125 g ai/ha): 95
- Sedge, Umbrella plant response rating ([5]; 250 g ai/ha): 100
- Plant response rating, Sedge, Umbrella ([5]; 16 g ai/ha): 65
- Rice, Transplanted plant response rating ([6]; 32 g ai/ha): 0
- Rice, Transplanted plant response rating ([6]; 64 g ai/ha): 0
- Rice, Transplanted plant response rating ([6]; 125 g ai/ha): 0
- Rice, Transplanted plant response rating ([6]; 250 g ai/ha): 0
- Plant response rating, Rice, Transplanted ([6]; 16 g ai/ha): 0
